# Where “and” joins values, the source holds several entries; their conditions need not be identical. Equal values may be shown once. Entries after “also recorded” stand apart in the source; their conditions may differ.
# Columns and labels:
# [1] = system: SARS-CoV-2; test: Multi-color immunofluorescence staining and tissue cytometry (Tissue FAXS) of infected rhesus macaque tissues; assay type: in vivo, rhesus macaques
# Description: To further verify the antiviral effect of FNC in the thymus, viral S-protein in the thymus was detected with immune staining. […] Tissue ACE2 was stained red, and viral S-protein was stained green. More green signals were detected in the thymus of the untreated monkey than in the FNC-treated one. Viral S-protein was quantitatively measured in the thymus with the Tissue FAXS platform and Tissue Quest software (Tissue Gnostics).[10],[26]–[30] […] The results of all eight monkeys are shown in Supplementary Fig. 10. […] Further evaluation of thymus cells undergoing programmed death was done with TUNEL staining, followed by quantitation with Tissue FAXS platform and Tissue Quest software (Tissue Gnostics, described in Methods). As shown in Supplementary Fig. 11, the number of apoptotic thymus cells from the untreated virus (+) monkeys was much higher than that from the FNC-treated ones.
# Fig. 5 FNC-protected thymus from the damage by SARS-CoV-2 infection. By the end of the experiment, the RM monkeys have practiced euthanasia, and the thymus samples were collected. a The representative images of the multi-color immunofluorescent staining were for ACE2 (red) and S protein (green) in the thymus of the RM monkeys that were inoculated with SARS-CoV-2 and treated or untreated with FNC. The regions of interest (ROI) are boxed in white, and their magnified photos are shown in the middle, with a decomposition diagram on the right. […] The regions of interest (ROI) are boxed in white, and their magnified photos are shown below. Data are presented as mean ± SEM (n = 4), *p < 0.05, FNC-treated group vs. untreated group, by Mann–Whitney U test TEXT PRINTED IN THE PICTURE: (b) FNC: ACE2 Mean Intensity / ACE2 Area (um2): 26.43%; S-protein Mean Intensity / S protein Area (um2): 9.83% DOUBTS OF THE COPYIST ABOUT THIS PICTURE: Panel b prints no group label. […] They are left out because an untreated control is not a substance. / The percentages in panel b have no printed measure. The axis titles of each plot were used as the measure.
# Tyramide Signal Amplification (TSA)^3 method was used for single staining of IL-4, IL-10, IL13, RORγt and tunnel; double staining of CD3 and CD20, ACE2 and S-protein; as well as triple staining of CD3, CD4 and CD8; ACE2, S-protein and N-protein. In brief, for each marker, the samples were treated with rabbit primary antibody and then incubated with HRP-conjugated goat anti-rabbit secondary antibody. After washing, slides were incubated with fluorescent reagent then heated with microwave oven to remove the combined antibodies. The antibodies were in Table S5.
# As described by Kaneko and colleagues,^4 microscopy-based multi color tissue cytometry was applied for quantitative analysis. In brief, images of the tissue specimens were acquired through the Tissue FAXS platform (Tissue Gnostics).^5,6 The area of the detected tissue was acquired as a digital gray scale image in four channels with filter settings for FITC, Cy3, Cy5 and DAPI. Cells of each phenotype were identified and quantitated, relative to the positive controls.
# [2] = system: thymus cells; assay type: in vivo, rhesus macaques
# [3] = system: PBMC; assay type: in vivo, rhesus macaques; settings: n = 4 for each group, with time, vs untreated
# [4] = system: SARS-CoV-2; test: Clinical trial of FNC on compassionate use in COVID-19 patients
# [5] = FNC-treated monkeys, n = 4, Tissue FAXS
# [6] = FNC-treated monkey #17368, scRNA-seq
# [7] = drug combination no: FNC only, N = 15
# [8] = drug combination no: FNC only, N = 15, mean ± SD
# [9] = drug combination yes: FNC plus TCM or/and other antivirals, N = 16, mean ± SD
# [10] = individual COVID-19 patient (one per table line)
# [11] = moderate COVID-19, n = 26, mean ± SD
# [12] = severe COVID-19, n = 5, mean ± SD
structure (smiles),measurement,setting,value
"[N-]=[N+]=N[C@]1(CO)O[C@@H](n2ccc(N)nc2=O)[C@@H](F)[C@@H]1O [FNC, 2′-deoxy-2′-β-fluoro-4′-azidocytidine]",viral S- and N-protein signal in the lung (immune staining),[1]; FNC-treated monkeys vs untreated,noticeably reduced
same,"S-protein-positive cells in thymus, proportion",[1]; [5],8.36 ± 4.84%
same,absolute numbers of ACE2+ cells in thymus,[1]; [5],"38,929 ± 19,470 cells"
same,number of S-protein-positive cells in thymus,[1]; [5],8941 ± 5436 cells
same,relative proportion of ACE2+ cells in thymus,[1]; [5],35.96 ± 16.90%
same,Proportion of B cells in thymus,[2]; [6],4.1%
same,Proportion of CD4 cells in thymus,[2]; [6],17.5%
same,Proportion of CD8 cells in thymus,[2]; [6],22.8%
same,Proportion of NKT cells in thymus,[2]; [6],4.6%
same,"expression of IL-4, IL-13, and IL-10 in the thymus cells",[2]; FNC-treated monkey #17368 vs untreated #17041,elevated
same,"percentage of CD3+, CD4+, and CD8+ cells in the peripheral blood",[3],increased
same,Recovery rate,[4]; all 31 COVID-19 patients,100% (31/31)
same,"Time from FNC treatment to SARS-CoV-2 negative conversion, median",[4]; all 31 COVID-19 patients,3.0 days
same,"Time from FNC treatment to SARS-CoV-2 negative conversion, range",[4]; all 31 COVID-19 patients,1 to 9 days
same,"Time from FNC treatment to discharge from the hospital, average",[4]; all 31 COVID-19 patients,9.00 ± 4.93 days and 9.00 days
same,"Time from FNC treatment to discharge from the hospital, median",[4]; all 31 COVID-19 patients,9.0 days
same,"Time from FNC treatment to discharge from the hospital, range",[4]; all 31 COVID-19 patients,2 to 25 days
same,deaths in the trial,[4]; all 31 COVID-19 patients,No patients died
same,hospital discharge rate,[4]; all 31 COVID-19 patients,100%
same,"viral ribonucleic acid negative conversion, share of patients",[4]; all 31 COVID-19 patients,100%
same,"Time from FNC treatment to SARS-CoV-2 negative conversion, average","[4]; all 31 COVID-19 patients, oral FNC 5 mg qd",3.29 ± 2.22 days and 3.29 days
same,Recovery rate,[4]; [7],100% (16/16)
same,Side effect,[4]; [7],13.3% (2/15)
same,Time from FNC treatment to SARS-CoV-2 negative conversion,[4]; [8],2.13 ± 1.30 days
same,Time from FNC treatment to discharge from the hospital,[4]; [8],8.67 ± 6.24 days
same,Recovery rate,"[4]; drug combination yes, N = 16",100% (16/16)
same,Side effect,"[4]; drug combination yes, N = 16",18.8% (3/16)
same,Time from FNC treatment to SARS-CoV-2 negative conversion,[4]; [9],4.38 ± 2.39 days
same,Time from FNC treatment to discharge from the hospital,[4]; [9],9.31 ± 3.46 days
same,Side effect,[4]; [10],"Dizziness (fist day); also recorded: Low counts of Platelet and Fibrinogen (first day); also recorded: Dizziness, Nausea, Vomit (first day); also recorded: Dizziness, Insomnia, Vomit (first day)"
same,Time from FNC treatment to discharge from the hospital,[4]; [10],6 days and 7 days and 5 days
same,Time from FNC treatment to SARS-CoV-2 negative conversion,[4]; individual COVID-19 patient (one per table line; dosage and combination treatment as in the line),6 days
same,Recovery rate,"[4]; moderate COVID-19, n = 26",100% (26/26)
same,Time from FNC treatment to SARS-CoV-2 negative conversion,[4]; [11],3.35 ± 2.13 days
same,Time from FNC treatment to discharge from the hospital,[4]; [11],9.65 ± 4.91 days
same,Recovery rate,"[4]; self-controlled comparison, 11 patients",100% (11/11)
same,Time from drug treatment to SARS-CoV-2 negative conversion,"[4]; self-controlled comparison, 11 patients first treated with known antivirals, then FNC alone, mean ± SD",1.73 ± 0.79 days
same,Time from FNC treatment to discharge from the hospital,"[4]; self-controlled comparison, 11 patients, mean ± SD",9.09 ± 7.27 days
same,Recovery rate,"[4]; severe COVID-19, n = 5",100% (5/5)
same,Side effect,"[4]; severe COVID-19, n = 5",40% (2/5)
same,Time from FNC treatment to SARS-CoV-2 negative conversion,[4]; [12],3.00 ± 2.92 days
same,Time from FNC treatment to discharge from the hospital,[4]; [12],5.60 ± 3.78 days

# From PMC8646019, “Azvudine is a thymus-homing anti-SARS-CoV-2 drug effective in treating COVID-19 patients” (Signal Transduction and Targeted Therapy, 2021)
